According to patent US4203986A, “M-Trifluoro-methylphenyl-piperazine” (Metabio-Joullie, priority 1977, dated 1980):
Like-named read-outs stand apart in the source and are kept apart here.

Columns and labels:
Acute toxicity in Mice = assay type: in vivo, mice (SWISS, EOPS, NMRI/Han, female); conditions: for LD50 at 360 h / MTD at 360 h: mouse, in vivo; for LD50 at 360 h / LD 50: method of KARBER and BEHRENS; for MTD at 360 h: read-out: LD 0 (maximum dose tolerated); for LD 0 (maximum dose tolerated) / LD 50: 21600 min
Description: The compounds are administered in increasing doses (in arithmetic progression) to groups of five .female. SWISS, EOPS, NMRI/Han mice of the EVIC CEBA strain and having a mean weight of 22 g.
For intravenous administration the compounds are dissolved in distilled water, for oral administration they are suspended in 10% gum arabic solution (volume administered: 0.5 ml/22 g body weight).
The LD 50's are calculated according to the method of KARBER and BEHRENS (B.) (Arch. Exp. Path. Pharmakol. 1935, 177, 379-388).
For each administration method, there is indicated:
LD 0 or maximum dose tolerated.
LD 100 or minimum lethal dose.
The number of animals surviving in the different groups is definitively verified 15 days after administrating the compounds.

[1] = tested on: coughing induced by aqueous citric acid aerosol; assay: Antitussive action in the guinea pig (citric acid aerosol); assay type: in vivo; conditions: for antitussive activity (in words): oral; for inhibition in vivo at 22 mg/kg: 22 mg/kg p.o.
Description: The technique used is that of SIECKMANN (W.) (in "Notions techniques de Pharmacologie generale" by Michel COLOT, page 75, Masson, Edit, 1972).
The guinea pigs .female. of mean weight 400 g, unanaesthesised, are subjected to the tussigenic effect of aerosols of a 7.5% aqueous citric acid solution. The animals are placed one by one in a cylindrical chamber having at its two extremities two canals, one serving as entrance for the aerosol and the other as its exit.
On the exit tube there is a lateral connection to a MERCURY gas pressure differential gauge joined to an RACIA counter. An adjustable screw clamp placed on the exit tube downstream of the lateral canal permits regulation of the sensitivity of the system such that the normal respiration of the animal only registers very weakly and that displacement of air in the chamber provoked by coughing attack is recorded clearly in the form of vertical traces.
Each guinea pig is first submitted to a control test for 5 minutes. One hour later it receives the test compound. It is replaced in the chamber for 5 minutes, 1 hour after oral administration of the compound.
The number of coughing attacks before and after administration is counted and the percentage inhibition is calculated.

[2] = Test on the cataleptic action in rats; assay type: in vivo; conditions: p.o., every 30 minutes for 6 hours
Description: (7) Test on the cataleptic action in rats (groups of 5 animals)
After administration p.o. of the test compounds, the degree of catalepsy is noted every 30 minutes for 6 hours by the test of crossing of the homolateral feet according to BOISSIER (J.R.) and SIMON (P.) (Therapy, 1963, 18, 1257-1277) and using the following notation:
0=animal which is not cataleptic
132 animal conserving position on one side only
2=animal conserving position on both sides

[3] = tested on: coughing by stimulation of the superior larynx nerve; assay: Antitussive action in the cat (stimulation of the superior larynx nerve); assay type: in vivo; conditions: for effect on coughing in cats (in words): i.v.
Description: The cats all thriving, male or female of weight between 1.5 and 2.5 kg (test on 10 cats) are anaesthesised by nembutal at a dose of 30 mg/kg interperitoneally.
A cannula having three branches is placed in the trachea. Two of the branches are connected to a device for registering intratracheal pressure (MERCURY gas pressure gauge connected to an RACIA polygraph) The third branch allows elimination of part of the respiratory volume.
A cannula is placed in the femoral vein for administration of the test substances.
The stimulation parameters are as follows: frequency: 5 cycles per sec, amplitude: 5 millisec, voltage: 4 to 6 volts, duration: 15 to 45 sec. (according to the sensitivity of the animal).
There are carried a minimum of 3 stimulations spaced by 5 minutes and provoking coughing attacks of the same severity. The compound is then administered intravenously. The stimulation is then carried out every 5 minutes. If the compound reduces or suppresses the coughing the stimulation is continued until the reappearance of coughing to approximately the same degree as the initial coughing.
The results are expressed as a percentage reduction in the number of coughs.

[4] = tested on: toxicity of amphetamine compounds; assay: Action on the toxicity of Amphetamine compounds in the mice; assay type: in vivo; conditions: per os
Description: (6) Action on the toxicity of Amphetamine compounds in the mice. (groups of 10 animals)
30 minutes after administration of the test compounds, amphetamine bitartrate is injected interperitioeally at a dose of 10 mg/kg (dose giving substantially 100% mortality) to mice in groups of 10 in boxes 12×18×13 cm. The number of animals surviving 24 hours after the amphetamine administration is noted.

[5] = Cavia porcellus, po, 1 h, read-out: Percentages of inhibition of coughing

Compound	LD50 at 360 h (Acute toxicity in Mice; po, oral administration)	MTD at 360 h (Acute toxicity in Mice; po, oral administration)	LD 100 (minimum lethal dose) (Acute toxicity in Mice; oral administration)	LD 100 (minimum lethal dose) (Acute toxicity in Mice; intravenous administration)	LD50 at 360 h (Acute toxicity in Mice; iv, intravenous administration)	MTD at 360 h (Acute toxicity in Mice; iv, intravenous administration)	other results
O=C1CCCCCC1CN1CCN(c2cccc(C(F)(F)F)c2)CC1 (stereo not drawn) [LJ 1176, 2-[4-(m-Trifluoromethylphenyl)-piperazino]-methyl-cycloheptanone]	1950 mg/kg	1500 mg/kg	2500 mg/kg	–	–	–	inhibition in vivo at 200 mg/kg ([1]; Cavia porcellus, po, 1 h, 200 mg/kg p.o., read-out: Percentages of inhibition of coughing): 78%; cataleptic effect [2]: absence of cataleptic effect
OCC(O)CN1CCN(c2cccc(C(F)(F)F)c2)CC1 (stereo not drawn) [LJ 1142, 3-[4-(m-Trifluoromethylphenyl)-piperazino]-propane-1,2-diol]	1120 mg/kg	750 mg/kg	1500 mg/kg	300 mg/kg	252 mg/kg	225 mg/kg	–
OCC(O)CN1CCN(c2ccc(F)c(C(F)(F)F)c2)CC1 (stereo not drawn) [LJ 1121, 3-[4-(3-Trifluoromethyl-4-fluorophenyl)-piperazino]propane-1,2-diol]	925 mg/kg	500 mg/kg	1250 mg/kg	–	–	–	–
OC1CCCCC1CN1CCN(c2cccc(C(F)(F)F)c2)CC1 (stereo not drawn) [LJ 1161, 2-[4-(m-Trifluoromethylphenyl)-piperazino]-methyl-cyclohexanol]	1500 mg/kg	750 mg/kg	2000 mg/kg	87.5 mg/kg	66 mg/kg	50 mg/kg	inhibition in vivo at 150 mg/kg ([1]; Cavia porcellus, po, 1 h, 150 mg/kg p.o., read-out: Percentages of inhibition of coughing): 75%; cataleptic effect [2]: absence of cataleptic effect
OC(CN1CCN(c2cccc(C(F)(F)F)c2)CC1)CN1CCN(c2cccc(C(F)(F)F)c2)CC1 [LJ 1154, 1,3-bis[4-(m-Trifluoromethylphenyl)-piperazino]-propan-2-ol]	–	–	200 mg/kg	44 mg/kg	–	–	LD 0 (maximum dose tolerated) (Acute toxicity in Mice; intravenous administration): 25 mg/kg; LD 50 (Acute toxicity in Mice; intravenous administration): 37.5 mg/kg; LD 0 (maximum dose tolerated) (Acute toxicity in Mice; oral administration): 50 mg/kg; LD 50 (Acute toxicity in Mice; oral administration): 135 mg/kg; inhibition in vivo at 6.75 mg/kg ([1]; Cavia porcellus, po, 1 h, 6.75 mg/kg p.o., read-out: Percentages of inhibition of coughing): 66%; inhibition in vivo at 13.5 mg/kg ([1]; Cavia porcellus, po, 1 h, 13.5 mg/kg p.o., read-out: Percentages of inhibition of coughing): 78%; antitussive activity (in words) [1]: also active if not more active than codeine; % maximum reduction in the number of coughs ([3]; 4 mg/kg i.v.): 80%; % maximum reduction in the number of coughs ([3]; 8 mg/kg i.v.): 100%; effect on coughing in cats (in words) [3]: comparable with those of codeine
OC(CN1CCN(c2ccc(F)c(C(F)(F)F)c2)CC1)CN1CCN(c2ccc(F)c(C(F)(F)F)c2)CC1 [LJ 1198, 1,3-bis[4-(3-Trifluoromethyl-4-fluorophenyl)-piperazino)-propan-2-ol]	225 mg/kg	50 mg/kg	400 mg/kg	–	–	–	inhibition in vivo at 22 mg/kg [1, 5]: 50%
O=C(CN1CCN(c2cccc(C(F)(F)F)c2)CC1)CN1CCN(c2cccc(C(F)(F)F)c2)CC1 [LJ 1163]	180 mg/kg	125 mg/kg	250 mg/kg	22.5 mg/kg	18 mg/kg	12.5 mg/kg	inhibition in vivo at 9 mg/kg ([1]; Cavia porcellus, po, 1 h, 9 mg/kg p.o., read-out: Percentages of inhibition of coughing): 64%; inhibition in vivo at 18 mg/kg ([1]; Cavia porcellus, po, 1 h, 18 mg/kg p.o., read-out: Percentages of inhibition of coughing): 78%; antitussive activity (in words) [1]: also active if not more active than codeine; % maximum reduction in the number of coughs ([3]; 1.8 mg/kg i.v.): 50%; Delay in the disappearance of protective effect ([3]; 1.8 mg/kg i.v.): Fleeting; % maximum reduction in the number of coughs ([3]; 3.6 mg/kg i.v.): 62%
OC(CN1CCN(c2cccc(C(F)(F)F)c2)CC1)CN1CCN(c2cccc(C(F)(F)F)c2)CC1 [LJ 1152, 1,3-bis[4-(m-Trifluoromethylphenyl)-piperazino]-propan-2-ol]	–	–	375 mg/kg	50 mg/kg	36 mg/kg	25 mg/kg	LD 0 (maximum dose tolerated) (Acute toxicity in Mice; oral administration): 125 mg/kg; LD 50 (Acute toxicity in Mice; oral administration): 225 mg/kg; inhibition in vivo at 22 mg/kg [1, 5]: 64%; inhibition in vivo at 72 mg/kg ([1]; Cavia porcellus, po, 1 h, 72 mg/kg p.o., read-out: Percentages of inhibition of coughing): 75%; antitussive activity (in words) [1]: also active if not more active than codeine; % maximum reduction in the number of coughs ([3]; 3.6 mg/kg i.v.): 76%; % maximum reduction in the number of coughs ([3]; 7.2 mg/kg i.v.): 100%; effect on coughing in cats (in words) [3]: comparable with those of codeine
OC(CN1CCN(c2cccc(C(F)(F)F)c2)CC1)CN1CCN(c2cccc(C(F)(F)F)c2)CC1 [LJ 1145, 1,3-bis[4-(m-Trifluoromethylphenyl)-piperazino]-propan-2-ol]	–	–	1000 mg/kg	–	–	–	LD 0 (maximum dose tolerated) (Acute toxicity in Mice; oral administration): 200 mg/kg; LD 50 (Acute toxicity in Mice; oral administration): 580 mg/kg; inhibition in vivo at 58 mg/kg ([1]; Cavia porcellus, po, 1 h, 58 mg/kg p.o., read-out: Percentages of inhibition of coughing): 58%
OCCN1CCN(c2ccc(F)c(C(F)(F)F)c2)CC1 [LJ 1195, 2-[4-(3-Trifluoromethyl-4-fluorophenyl)-piperazino]-ethanol]	844 mg/kg	300 mg/kg	1250 mg/kg	–	–	–	–
O=C1CCCCC1CN1CCN(c2ccc(F)c(C(F)(F)F)c2)CC1 (stereo not drawn) [LJ 1196, 2-[4-(3-Trifluoromethyl-4-fluorophenyl)-piperazino]-methyl-cyclohexanone]	937 mg/kg	625 mg/kg	1250 mg/kg	–	–	–	–
COc1ccc2c3c1O[C@H]1[C@@H](O)C=C[C@H]4[C@@H](C2)N(C)CC[C@@]341 [Codeine, reference compound]	–	–	–	–	–	–	inhibition in vivo at 35 mg/kg ([1]; Cavia porcellus, po, 1 h, 35 mg/kg p.o., read-out: Percentages of inhibition of coughing): 64%; inhibition in vivo at 70 mg/kg ([1]; Cavia porcellus, po, 1 h, 70 mg/kg p.o., read-out: Percentages of inhibition of coughing): 71%; % maximum reduction in the number of coughs ([3]; 3.5 mg/kg i.v.): 100%
OC1CCCCC1N1CCN(c2cccc(C(F)(F)F)c2)CC1 (stereo not drawn) [LJ 1143, 2-[4-(m-Trifluoromethylphenyl)-piperazino]-cyclohexanol]	625 mg/kg	250 mg/kg	1000 mg/kg	81 mg/kg	69 mg/kg	56 mg/kg	–
O=C1CCCC1CN1CCN(c2cccc(C(F)(F)F)c2)CC1 (stereo not drawn) [LJ 1160]	975 mg/kg	500 mg/kg	1500 mg/kg	87.5 mg/kg	74 mg/kg	62.5 mg/kg	inhibition in vivo at 100 mg/kg ([1]; Cavia porcellus, po, 1 h, 100 mg/kg p.o., read-out: Percentages of inhibition of coughing): 50%; toxicity of amphetamine compounds (in words) [4]: reduce the toxicity of amphetamine compounds; cataleptic effect [2]: absence of cataleptic effect
